The target of the experiment is T1, human IKKβ (Homo sapiens, UniProt O14920).
T1 construct: FLAG (N)
T1 sequence (O14920 1-756): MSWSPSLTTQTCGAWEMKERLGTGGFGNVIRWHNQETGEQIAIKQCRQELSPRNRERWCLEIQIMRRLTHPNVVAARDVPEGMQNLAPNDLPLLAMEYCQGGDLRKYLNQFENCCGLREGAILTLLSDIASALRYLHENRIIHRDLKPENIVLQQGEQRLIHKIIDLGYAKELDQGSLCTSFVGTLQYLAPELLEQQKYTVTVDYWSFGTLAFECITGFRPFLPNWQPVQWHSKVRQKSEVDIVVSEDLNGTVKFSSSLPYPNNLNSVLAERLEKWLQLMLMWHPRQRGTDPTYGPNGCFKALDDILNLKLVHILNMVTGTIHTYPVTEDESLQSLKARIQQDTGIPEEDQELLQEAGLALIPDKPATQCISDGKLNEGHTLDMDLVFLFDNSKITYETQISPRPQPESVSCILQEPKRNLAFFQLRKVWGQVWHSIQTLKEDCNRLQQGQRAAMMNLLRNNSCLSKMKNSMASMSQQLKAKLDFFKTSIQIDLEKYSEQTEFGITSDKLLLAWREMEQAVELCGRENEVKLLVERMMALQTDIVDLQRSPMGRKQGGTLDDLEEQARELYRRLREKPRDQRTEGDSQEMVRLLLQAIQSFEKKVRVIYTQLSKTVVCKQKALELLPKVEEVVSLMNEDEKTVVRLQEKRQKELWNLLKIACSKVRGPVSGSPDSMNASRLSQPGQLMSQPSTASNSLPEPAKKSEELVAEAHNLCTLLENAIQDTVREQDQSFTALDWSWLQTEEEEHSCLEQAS
In words: IKKβ kinase inhibition assay (phosphorylation of IκBα substrate, 33P-ATP). The experiment is classed as biochemical. The conditions noted are these: flag-tagged human IKKβ 0.9 μg/ml, GST-IκBα (1-54) 53 μg/ml, 250 nM ATP, 1 hour at 25° C. As to the method: The inhibition of IKKα and IKKβ by the compounds of the present invention was determined with the following assay that measures the phosphorylation of the IκBα substrate by the respective kinases. The enzymes used in the assay were N-terminally flag-tagged versions of the human IKKβ or IKKα and the substrate was a GST fusion protein with IκBα (amino acids 1-54).
The reaction mixtures (60 μl) contained 20 mM HEPES pH 7.5, 10 mM MgCl2, 2 mM MnCl2, 100 mM NaCl, 100 μM Na3VO4, 20 mM β-glycerophosphate, 1 mM DTT, 2% DMSO, 250 nM ATP, 0.4 nM [^33P]ATP (specific activity, 3000 Ci/mmol), IκBα substrate, IKK enzyme and test compound. The reaction mixtures contained either 3.6 μg/ml IKKα and 245 μg/ml IκBα or 0.9 μg/ml IKKβ and 53 μg/ml IκBα.
Reactions were initiated by adding a solution of IκBα substrate and ATP to polypropylene plates containing IKK enzyme that was pre-incubated for 5 minutes with test compound. Then the reaction mixtures were incubated for 1 hour at 25° C., placed on ice and quenched by the addition of 150 μl 10% trichloroacetic acid and 5% disodium pyrophosphate. After mixing, the entire contents of the quenched reaction mixtures were transferred to a pre-wetted Packard UniFilter filtration plate, aspirated and washed 6 times with 250 μl of ddH2O using the Packard Filtermate Harvester. Filtration plates were then air dried, supplemented with 40 μl of Microscint 20 scintillation fluid and the ^33P-labeled reaction products were quantified using the Packard TopCount scintillation counter.
Compounds were tested in three-fold serial dilutions and inhibitor concentrations to achieve 50% inhibition of enzyme activity (i.e., IC50) were derived from dose-reponse curves using SAS software (SAS Institute, Cary N.C.). A non-linear regression analysis based on the Hill equation was applied to the percent inhibition versus concentration data. In all cases, compound concentrations were verified by HPLC.
Compound `CCCc1cc(N2CCC(NC[C@@H](O)COc3ccccc3)CC2)nc2sc(C(N)=O)c(N)c12` [3-Amino-6-[4-((R)-2-hydroxy-3-phenoxy-propylamino)-piperidin-1-yl]-4-propyl-thieno[2,3-b] pyridine-2-carboxylic acid amide] registered an IC50 below 1000 nM. The same measure for `CCCc1cc(N2CCC(NCC(O)CNc3ccccc3)CC2)nc2sc(C(N)=O)c(N)c12` (stereo not drawn) [3-Amino-6-[4-(2-hydroxy-3-phenylamino-propylamino)-piperidin-1-yl]-4-propyl-thieno[2,3-b] pyridine-2-carboxylic acid amide]: below 1000 nM; for `CCCc1cc(N2CCC(NCC(O)c3ccc(-c4ccccn4)cc3)CC2)nc2sc(C(N)=O)c(N)c12` (stereo not drawn) [3-Amino-6-{4-[2-hydroxy-2-(4-pyridin-2-yl-phenyl)-ethylamino]-piperidin-1-yl}-4-propyl-thieno[2,3-b] pyridine-2-carboxylic acid amide]: below 1000 nM.

For the compound `CCCc1cc(N2CCC(NCC(O)COCc3ccccc3)CC2)nc2sc(C(N)=O)c(N)c12` (stereo not drawn) [3-Amino-6-[4-(3-benzyloxy-2-hydroxy-propylamino)-piperidin-1-yl]-4-propyl-thieno[2,3-b] pyridine-2-carboxylic acid amide], the IC50 was below 1000 nM. The same measure for `CCCc1cc(N2CCC(NCC(O)COc3ccc(F)cc3)CC2)nc2sc(C(N)=O)c(N)c12` (stereo not drawn) [3-Amino-6-{4-[3-(4-fluoro-phenoxy)-2-hydroxy-propylamino]-piperidin-1-yl}-4-propyl-thieno[2,3-b] pyridine-2-carboxylic acid amide]: below 1000 nM; for `NC(=O)c1sc2nc(N3CCC(NCC(O)c4ccc(-c5ccccc5)cc4)CC3)cc(C(F)(F)F)c2c1N` (stereo not drawn) [3-Amino-6-[4-(2-biphenyl-4-yl-2-hydroxy-ethylamino)-piperidin-1-yl]-4-trifluoromethyl-thieno[2,3-b]pyridine-2-carboxylic acid amide]: below 1000 nM. The same measure for `CCCc1cc(N2CCC(NCC(O)COc3ccc(C(F)(F)F)cc3)CC2)nc2sc(C(N)=O)c(N)c12` (stereo not drawn) [3-Amino-6-{4-[2-hydroxy-3-(4-trifluoromethyl-phenoxy)-propylamino]-piperidin-1-yl}-4-propyl-thieno[2,3-b] pyridine-2-carboxylic acid amide]: below 1000 nM. The same measure for `NC(=O)c1sc2nc(N3CCC(NCC(O)c4ccc(-c5cccnc5)cc4)CC3)cc(C(F)(F)F)c2c1N` (stereo not drawn) [3-Amino-6-{4-[2-hydroxy-2-(4-pyridin-3-yl-phenyl)-ethylamino]-piperidin-1-yl}-4-trifluoromethyl-thieno[2,3-b]pyridine-2-carboxylic acid amide]: below 1000 nM; for `CCCc1cc(N2CCC(NCC(O)c3ccc(-c4cncnc4)cc3)CC2)nc2sc(C(N)=O)c(N)c12` (stereo not drawn) [3-Amino-6-{4-[2-hydroxy-2-(4-pyrimidin-5-yl-phenyl)-ethylamino]-piperidin-1-yl}-4-propyl-thieno[2,3-b] pyridine-2-carboxylic acid amide]: below 1000 nM. The compound `CCCc1cc(N2CCC(NCC(O)c3ccc(-c4ccccc4)cc3)CC2)nc2sc(C(N)=O)c(N)c12` (stereo not drawn) [3-Amino-6-[4-(2-biphenyl-4-yl-2-hydroxy-ethylamino)-piperidin-1-yl]-4-propyl-thieno[2,3-b] pyridine-2-carboxylic acid amide] had a concentration for half-maximal inhibition (IC50) below 1000 nM. The result for `CCCc1cc(N2CCC(NCC(O)COc3cccc(C#N)c3)CC2)nc2sc(C(N)=O)c(N)c12` (stereo not drawn) [3-Amino-6-{4-[3-(3-cyano-phenoxy)-2-hydroxy-propylamino]-piperidin-1-yl}-4-propyl-thieno[2,3-b] pyridine-2-carboxylic acid amide] reads below 1000 nM.

The compound `CCCc1cc(N2CCC(NCC(O)Cc3cccc(C(N)=O)c3)CC2)nc2sc(C(N)=O)c(N)c12` (stereo not drawn) [3-Amino-6-{4-[3-(3-carbamoyl-phenyl)-2-hydroxy-propylamino]-piperidin-1-yl}-4-propyl-thieno[2,3-b] pyridine-2-carboxylic acid amide] displayed an IC50 below 1000 nM. Turning to `CCCc1cc(N2CCC(NCC(O)Cc3ccc(C(N)=O)cc3)CC2)nc2sc(C(N)=O)c(N)c12` (stereo not drawn) [3-Amino-6-{4-[3-(4-carbamoyl-phenyl)-2-hydroxy-propylamino]-piperidin-1-yl}-4-propyl-thieno[2,3-b] pyridine-2-carboxylic acid amide], the IC50 was below 1000 nM. The result for `NC(=O)c1sc2nc(N3CCC(NCC(O)c4ccc(-c5ccccn5)cc4)CC3)cc(C(F)(F)F)c2c1N` (stereo not drawn) [3-Amino-6-{4-[2-hydroxy-2-(4-pyridin-2-yl-phenyl)-ethylamino]-piperidin-1-yl}-4-trifluoromethyl-thieno[2,3-b]pyridine-2-carboxylic acid amide] reads below 1000 nM; that for `CCCc1cc(N2CCC(NCC(=O)Nc3cnc4ccccc4c3)CC2)nc2sc(C(N)=O)c(N)c12`, below 1000 nM; that for `NC(=O)c1sc2nc(N3CCC(NCCO)CC3)cc(C(F)(F)F)c2c1N` [3-Amino-6-[4-(2-hydroxy-ethylamino)-piperidin-1-yl]-4-trifluoromethyl-thieno[2,3-b]pyridine-2-carboxylic acid amide], below 1000 nM. The same measure for `CCCc1cc(N2CCC(NCC(O)c3cccc(-c4ccccn4)c3)CC2)nc2sc(C(N)=O)c(N)c12` (stereo not drawn) [3-Amino-6-{4-[2-hydroxy-2-(3-pyridin-2-yl-phenyl)-ethylamino]-piperidin-1-yl}-4-propyl-thieno[2,3-b] pyridine-2-carboxylic acid amide]: below 1000 nM; for `CCCc1cc(N2CCC(NCC(O)COc3cccc4ccccc34)CC2)nc2sc(C(N)=O)c(N)c12` (stereo not drawn) [3-Amino-6-{4-[2-hydroxy-3-(naphthalen-1-yloxy)-propylamino]-piperidin-1-yl}-4-propyl-thieno[2,3-b] pyridine-2-carboxylic acid amide]: below 1000 nM. `CCCc1cc(N2CCC(NCCc3ccc(C(N)=O)cc3)CC2)nc2sc(C(N)=O)c(N)c12` [3-Amino-6-{4-[2-(4-carbamoyl-phenyl)-ethylamino]-piperidin-1-yl}-4-propyl-thieno[2,3-b] pyridine-2-carboxylic acid amide] registered an IC50 below 1000 nM. The result for `CCCc1cc(N2CCC(NCC(O)COc3cccc(OC)c3)CC2)nc2sc(C(N)=O)c(N)c12` (stereo not drawn) [3-Amino-6-{4-[2-hydroxy-3-(3-methoxy-phenoxy)-propylamino]-piperidin-1-yl}-4-propyl-thieno[2,3-b] pyridine-2-carboxylic acid amide] reads below 1000 nM. Take `CCCc1cc(N2CCC(NCC(O)c3ccc(-c4cnccn4)cc3)CC2)nc2sc(C(N)=O)c(N)c12` (stereo not drawn) [3-Amino-6-{4-[2-hydroxy-2-(4-pyrazin-2-yl-phenyl)-ethylamino]-piperidin-1-yl}-4-propyl-thieno[2,3-b] pyridine-2-carboxylic acid amide]: the IC50 is below 1000 nM.

With `CCCc1cc(N2CCC(NCC(O)CNc3cccc(C(N)=O)c3)CC2)nc2sc(C(N)=O)c(N)c12` (stereo not drawn) [3-Amino-6-{4-[3-(3-carbamoyl-phenylamino)-2-hydroxy-propylamino]-piperidin-1-yl}-4-propyl-thieno[2,3-b] pyridine-2-carboxylic acid amide], the IC50 is below 1000 nM. The same measure for `CCCc1cc(N2CCC(NCC(O)COc3ccc4ccccc4c3)CC2)nc2sc(C(N)=O)c(N)c12` (stereo not drawn) [3-Amino-6-{4-[2-hydroxy-3-(naphthalen-2-yloxy)-propylamino]-piperidin-1-yl}-4-propyl-thieno[2,3-b] pyridine-2-carboxylic acid amide]: below 1000 nM; for `CCCc1cc(N2CCC(NCC(=O)Nc3ccccc3C(N)=O)CC2)nc2sc(C(N)=O)c(N)c12` [3-Amino-6-(4-{[(2-carbamoyl-phenylcarbamoyl)-methyl]-amino}-piperidin-1-yl)-4-propyl-thieno[2,3-b] pyridine-2-carboxylic acid amide]: below 1000 nM.

As a reminder, the IC50 is the midpoint of a concentration-inhibition curve. A low value points to greater potency.

The record behind these values is patent US6974870B2, “Substituted 3-amino-thieno [2,3-b]pyridine-2-carboxylic acid amide compounds and processes for preparing and their uses” (Boehringer Ingelheim Phamaceuticals, Inc., priority 2002, dated 2005).
